Data: BindingDB's records for PubMed 39892094 (University of Lubeck and University Medical Center …)

Key:
[1] = Inhibition of MCT-1 in human A549 cells assessed as potentiation of 3-BP-mediated cytotoxicity by measuring decrease in cell viability incubated for 72 hrs in presence of 3-BP by MTT assay
[2] = Reversal of ABCG2 (unknown origin)-mediated multidrug resistance transfected in dog MDCK-II-BCRP cells assessed as increase in SN-38-mediated cytotoxicity incubated for 72 hrs in presence of SN-38 by MTT assay
[3] = Reversal of ABCC1-mediated multidrug resistance in human NCI-H69AR cells assessed as increase in doxorubicin-mediated cytotoxicity incubated for 72 hrs in presence of doxorubicin by MTT assay
[4] = Reversal of ABCB1-mediated multidrug resistance in human A2780 ADR cells assessed as increase in doxorubicin-mediated cytotoxicity incubated for 72 hrs in presence of doxorubicin by MTT assay

O=C(Cn1nc(C(=O)Nc2cccnc2)c2ccccc21)Nc1ccc(Cl)cc1
IC50 [1]: 3.32 µM | EC50 [2]: 1.05 µM | EC50 [3]: 6.86 µM | EC50 [4]: 4.67 µM

COc1cccc(NC(=O)c2nn(CC(=O)Nc3ccccc3OC)c3ccccc23)c1
EC50 [2]: 0.603 µM | EC50 [3]: 5.53 µM | EC50 [4]: 3.34 µM

COc1cccc(NC(=O)Cn2nc(C(=O)Nc3cccc(OC)c3)c3ccccc32)c1
EC50 [3]: 8.55 µM | EC50 [4]: 2.01 µM

O=C(Cn1nc(C(=O)Nc2ccccn2)c2ccccc21)Nc1cc(Cl)ccc1Cl
IC50 [1]: 1.89 µM | EC50 [2]: 0.326 µM | EC50 [3]: 33.1 µM | EC50 [4]: 0.089 µM
